Data on three molecules can be found in US9150581B2, “Nicotinic receptor compounds” (priority 2011, dated 2015).

In data set [1] the test system is mice. Nature of the data set: Spontaneous activity (photocell activity cages). In kind it is in vivo, mouse. Particulars: sc. As to the method: (§1) Interruptions of the photocell beams (two banks of eight cells each) were then recorded for the next 10 min. Data were expressed as number of photocell interruptions. Rectal temperature was measured by a thermistor probe (inserted 24 mm) and digital thermometer (Yellow Springs Instrument Co., Yellow Springs, Ohio). […] The difference in rectal temperature before and after treatment was calculated for each mouse. The ambient temperature of the laboratory varied from 21 to 24° C. from day to day.

Data set [2] has as its system mice. As to the kind of experiment: Antagonism of nicotine antinociception, hot-plate. The conditions noted are these: for Antagonism Hot-Plate, % at dose: before nicotine 2.5 mg/kg sc. In kind it is in vivo, mouse. As to the method: (§2) In the tail-flick method of D'Amour and Smith, (D'Amour, F. E.; Smith, D. L. J. Pharmacol. Exp. Ther. 1941, 72, 74-79), the tail is exposed to a heat lamp and the amount of time taken for the animal to move (flick) its tail away from the heat is recorded. […] Mice were placed into a 10-cm wide glass cylinder on a hot plate (Thermojust Apparatus) maintained at 55.0° C. Two control latencies at least 10 min apart were determined for each mouse. […] The reaction time was scored when the animal jumped or licked its paws. The mice were tested 5 min after subcutaneous (sc) injections of nicotinic ligands for the dose-response determination. Antinociceptive response was calculated as percentage of maximum possible effect (% MPE, where % MPE=[(test−control)/(maximum latency−control)×100]).
(§3) Nicotine was administered at a dose of 2.5 mg/kg, sc (an ED84 dose), and mice were tested 5 min later. ED50 and AD50 values with 95% confidence limits were determined.

Data set [3] addresses α7 nAChR (Rattus norvegicus (Rat), UniProt Q05941). The format is binding. Particulars: read-out: α7 [125I]iodoMLA (Ki).
For data set [4], the system named is mice. Nature of the data set: Antagonism of nicotine antinociception, tail-flick. In kind it is in vivo, mouse. Particulars: for AD50 Tail-Flick: mice pretreated sc 10 min before nicotine 2.5 mg/kg sc. As to the method:
as §2, §3

Data set [5] has as its target α4β2 nAChR (Rattus norvegicus (Rat), UniProt P09483+P12390). As to the kind of experiment: Inhibition of [3H]epibatidine binding at the α4β2 nAChR in male rat cerebral cortex. The conditions noted are these: read-out: αβ [3H]Epibatidine (Ki).
Data set [6] relates to mice. Nature of the data set: Tail-flick test (antinociception). In kind it is in vivo, mouse. The conditions noted are these: sc; for Tail-Flick, % effect at dose: @ 10 mg/kg. On the procedure: as §2
For data set [7], the system named is mice. Nature of the data set: Hypothermia (rectal temperature). In kind it is in vivo, mouse. The conditions noted are these: sc. As to the method: as §1
The test system of data set [8] is mice. As to the kind of experiment: Hot-plate test (antinociception). In kind it is in vivo, mouse. Particulars: sc; for Hot-Plate, % effect at dose: @ 10 mg/kg. As to the method:
as §2

The test system of data set [9] is Male ICR adult mice. The format is in vivo, mouse.
The test system of data set [10] is Male Sprague-Dawley rats. The format is in vivo, rat. Particulars: compound alone (FIG. 3). On the procedure:
A drug discrimination assay was performed to measure the relevant effects of nicotine as it influences tobacco use and abuse. In a drug discrimination assay, food restricted rates are trained to make one response (select one of two nose-poke apertures in the test chamber) following administration of a particular drug, and a different response (select the other aperture) following administration of saline. The appropriate response is followed by delivery of food, and there is no cue as to which aperture will result in food delivery other than the presence or absence of the drug. Once trained, the animals respond on the “drug-associated” aperture following drug administration and on the “saline-associated” aperture following saline administration. In addition, administration of drug doses that are smaller than the training dose produce intermediate responses on the drug-associated aperture such that monotonically increasing dose-response curves can be generated in drug discrimination assays.
Male Sprague-Dawley rats were obtained from Harlan, Inc (Indianapolis, Ind.) and singly housed in polycarbonate cages with water continuously available. All rats weighed approximately 280-290 gms at the start of the experiment. A food-restricted diet of Purina rodent food allowed the animals to grow but maintain motivation to respond to earn food pellets. A 12 hr light-dark cycle turned the lights on at 7:00 am. Standard operant conditioning chambers (ENV-008, Med-Associates, St Albans, Vt.) were used for establishing and evaluating the nicotine discrimination. Each chamber contains two nose-poke devices with apertures containing yellow LED lights on either side of a dipper capable of delivering 50 μl of fluid into a third opening.
Initially, each rat was trained to insert its nose into one of the apertures and received vanilla-flavored Ensure as a consequence. During discrimination training, rats designated in the small dose group were injected with either saline or 0.32 mg/kg of nicotine. Ten consecutive responses on the appropriate lever (one side following saline administration; the other side following nicotine administration) was followed by presentation of the Ensure for 10 s, followed by a 10 s timeout. Selection of the incorrect lever, and completion of the 10 consecutive responses in this lever results in a 10 s timeout. Criteria for learning the discrimination are 1) responding on the first FR of the session is completed on the injection appropriate aperture; 2) >85% of the total session responses are made on the injection-appropriate aperture.
Each session was divided into several components of 25 min duration. Following an injection, the first five minutes of each component were black out, and the stimulus lights were illuminated for the remaining 20 min, during which injection-appropriate responses were reinforced.
One to four components comprised daily sessions Animals were injected with saline or nicotine prior to the start of the session, or following one or more of the […] components. Possible injection conditions were (S=saline, N=nicotine) S—S—S—S; N; S—N; S—S—N; S—S—S—N. Nicotine administration is always given in the final component if it is given at all.
If a potential antagonist was given, it was administered prior to the session at a time determined by earlier studies to be sufficient for peak effects to be established. The session components then comprised increasing doses of nicotine, each given before consecutive blackout periods. No more than two antagonist sessions were given each week, and once each month a nicotine dose-response curve was determined to assure no changes in sensitivity to nicotine. Full generalization to the nicotine discriminative cue is defined by >85% responding on the drug-associated aperture and completing at least one FR.
A second, large-nicotine trained group of rats were treated in an identical manner except that their training dose of nicotine is 1.78 mg/kg. […]

Data set [11] relates to Male Sprague-Dawley rats. Particulars: rats, s.c., compound alone. On the procedure: Male Sprague-Dawley rats (approximately 300 g) were obtained from Harlan, Inc. (Indianapolis, Ind.) and group-housed upon arrival. Food and water were freely available for all rats at all times. Housing and experimental rooms were maintained on a 12 h light/dark cycle with lights on at 7:00 AM with an average temperature of 21° C.
Surgical Procedures. To measure changes in heart rate and mean arterial pressure, rats were implanted with telemetric transmitters (TA11PAC40 or TL11M2-C50-PXT, Data Sciences International, Transoma Medical Inc., St. Paul, Minn., USA) under ketamine (90 mg/kg, i.p.) and xylazine (10 mg/kg, i.p.) anesthesia. An incision is made in the skin approximately 1 in to the left or right of the spine and over the left or right thigh to expose the femoral artery. The transmitter is placed into the incision on the dorsal side and into a subcutaneous pocket (made by separating the connective tissue between the skin and muscle) on the side of the abdomen. This positioning prevents the rats from manipulating the incision site and gaining access to the transmitter. The catheter extending from the base of the transmitter is threaded subcutaneously, placed 3 cm into the femoral artery, and secured with suture. Incisions were closed with 5.0 Ethicon nylon monofilament suture. Following surgery, rats were singly-housed and monitored for at least 7 days for signs of recovery (normal eating, drinking, and defecating patterns) prior to experimentation. All rats continued to have free access to food and water at all times.
Telemetry System. The system consists of battery-operated transmitters surgically implanted (described above), Physiotel® receivers, the DSI Data Exchange Matrix, and the Dataquest A.R.T. system, which collects and stores digital data from the receiver onto a computer (Data Sciences International, Transoma Medical Inc., St. Paul, Minn., USA). Blood pressure and heart rate data were analyzed by the Dataquest A.R.T. Gold Analysis 3.01 software.
At the start of an experiment, rats' home cages were placed on top of the receivers, and baseline data was collected for at least 1 h to allow heart rate and blood pressure to return to resting levels. All rats were given a saline injection to ensure that they are habituated to the injection and handling procedure on the test day. After heart rate and blood pressure returned to resting levels again, rats were injected with a treatment, consisting either of a single drug dose or a pretreatment drug administered 15 min prior to a test drug. Data was collected for at least 2 h following the last injection. All injections were administered subcutaneously (s.c.) in a volume of 1 ml/kg.
Each rat was used to evaluate multiple experimental conditions, such that each rat may receive as many as 4-6 different treatments, one per week with at least 6 days between drug exposures. […] Once the rats weigh approximately 450 g (body weight at time of transmitter implant: 300-350 g), the rat is no longer used for experiments, and the transmitter is removed.
Data were collected throughout baseline, before, and after drug treatments. The analysis program calculated an average heart rate and mean arterial pressure (MAP) every 10 sec. These 10 secepochs are then averaged over 1 min per rat, and data from at least 6 rats were averaged for each treatment group.

Chain of α7 nAChR (Q05941 23-502 limits assumed): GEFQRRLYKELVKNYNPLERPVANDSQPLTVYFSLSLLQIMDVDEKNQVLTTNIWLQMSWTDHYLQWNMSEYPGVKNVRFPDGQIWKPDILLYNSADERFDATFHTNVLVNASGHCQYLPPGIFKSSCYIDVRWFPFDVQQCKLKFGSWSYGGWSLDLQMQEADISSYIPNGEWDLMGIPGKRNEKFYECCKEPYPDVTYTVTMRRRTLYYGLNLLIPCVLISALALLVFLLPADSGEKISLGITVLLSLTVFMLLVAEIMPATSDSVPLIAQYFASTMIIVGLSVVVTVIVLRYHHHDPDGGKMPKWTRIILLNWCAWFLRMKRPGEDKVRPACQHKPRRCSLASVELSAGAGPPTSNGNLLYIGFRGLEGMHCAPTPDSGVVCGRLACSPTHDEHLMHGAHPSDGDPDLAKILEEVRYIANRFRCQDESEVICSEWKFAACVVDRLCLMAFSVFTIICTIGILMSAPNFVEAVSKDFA
Chain of α4β2 nAChR (P09483 31-630 limits assumed): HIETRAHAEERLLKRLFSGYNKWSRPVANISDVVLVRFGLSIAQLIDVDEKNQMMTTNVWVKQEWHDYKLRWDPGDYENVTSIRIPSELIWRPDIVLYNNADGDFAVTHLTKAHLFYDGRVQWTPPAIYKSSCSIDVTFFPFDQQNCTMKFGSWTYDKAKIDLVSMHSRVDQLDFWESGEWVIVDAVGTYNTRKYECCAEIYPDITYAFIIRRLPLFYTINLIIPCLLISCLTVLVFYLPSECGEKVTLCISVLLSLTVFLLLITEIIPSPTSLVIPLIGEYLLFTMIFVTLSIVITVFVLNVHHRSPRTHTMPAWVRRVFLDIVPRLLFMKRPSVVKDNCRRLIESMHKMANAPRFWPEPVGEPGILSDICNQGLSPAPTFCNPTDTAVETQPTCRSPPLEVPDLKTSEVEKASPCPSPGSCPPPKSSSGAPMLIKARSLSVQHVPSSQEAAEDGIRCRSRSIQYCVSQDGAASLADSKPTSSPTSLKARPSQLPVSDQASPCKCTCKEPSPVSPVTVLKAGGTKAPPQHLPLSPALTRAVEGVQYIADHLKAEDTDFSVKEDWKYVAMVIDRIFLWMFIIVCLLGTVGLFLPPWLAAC
Chain of α4β2 nAChR (P12390 25-500 limits assumed): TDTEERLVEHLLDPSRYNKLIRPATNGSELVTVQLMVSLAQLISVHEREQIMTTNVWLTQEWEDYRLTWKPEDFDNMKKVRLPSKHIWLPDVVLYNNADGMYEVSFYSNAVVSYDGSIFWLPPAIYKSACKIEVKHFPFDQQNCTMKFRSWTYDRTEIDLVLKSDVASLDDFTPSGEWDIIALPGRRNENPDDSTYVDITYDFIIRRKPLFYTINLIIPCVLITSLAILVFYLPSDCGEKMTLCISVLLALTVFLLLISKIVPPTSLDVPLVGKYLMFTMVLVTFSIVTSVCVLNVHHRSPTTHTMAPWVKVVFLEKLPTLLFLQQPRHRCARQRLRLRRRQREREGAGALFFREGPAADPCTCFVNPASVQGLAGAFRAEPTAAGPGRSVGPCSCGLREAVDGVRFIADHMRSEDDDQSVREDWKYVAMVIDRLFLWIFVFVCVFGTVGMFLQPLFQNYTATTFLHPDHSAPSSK

With “2-exo-2-Fluoro-3-(3′-benzamide)deschloroepibatidine Hydrochloride [RTI-7527-169]”, in data set [1], the “ED50 Spontaneous Activity” value amounted to 1 mg/kg. In data set [2] (@ 500 μg/kg), the “Antagonism Hot-Plate, % at dose” value amounted to 20% @. Also, the inhibition constant Ki is 870 nM in data set [3] and 0.36 ± 0.088 nM in [5]. Besides, in data set [4] (@ 500 μg/kg, before nicotine 2.5 mg/kg sc), the “Antagonism Tail-Flick, % at dose” value was 10% @ 500. Moreover, the “ED50 Tail-Flick” value in data set [6] (tested 5 min after injection) came to 5.6 mg/kg. Further, the “ED50 Hypothermia” value in [7] is 1.7 mg/kg. In data set [8] (tested 5 min after injection), the “ED50 Hot-Plate” value was found to be 3.6 mg/kg.

For “2-exo-2-Fluoro-3-(4′-benzamide)deschloroepibatidine Hydrochloride [RTI-7527-168]”, the “ED50 Spontaneous Activity” value in [1] was 3.5 mg/kg. The “Antagonism Hot-Plate, % at dose” value in data set [2] (@ 2000 μg/kg) stood at 1% @. Also, the inhibition constant Ki is 1870 nM in [3] and 0.12 ± 0.021 nM in data set [5]. For the same molecule, the “AD50 Tail-Flick” value in data set [4] came to 0.009 mg/kg. Also, in data set [6], the “Tail-Flick, % effect at dose” value amounted to 16% @ 10. In data set [7], the “ED50 Hypothermia” value amounted to 4.2 mg/kg. The “Hot-Plate, % effect at dose” value in [8] stood at 60% @ 10.

Take `c1cnc2cc3c(cc2n1)[C@@H]1CNC[C@H]3C1` [varenicline, reference compound]: the 50% effective dose (ED50) in data set [1] (Mus musculus) was 2.1 mg/kg; in [7] (Mus musculus), 2.8 mg/kg. Besides, the “Preference or aversion induced by compound itself in CPP” value in data set [9] (compound alone at the doses used) is recorded as “without a significant effect on its own”. Besides, the “Blockade of nicotine CPP” value in data set [9] (mouse, s.c. 10 min prior to nicotine 0.5 mg/kg, several doses) is listed as “dose-dependently blocked nicotine CPP”. Moreover, in data set [2] (mice pretreated sc 10 min before nicotine 2.5 mg/kg sc), the “AD50 Hot-Plate” value stood at 0.47 mg/kg. In addition, the inhibitory constant (Ki) in [3] came out at 32.5 nM. Also, the “AD50 Tail-Flick” value in data set [4] is 0.0002 mg/kg. Moreover, the “Tail-Flick, % effect at dose” value in data set [6] was 11% @ 10. Besides, the “Hot-Plate, % effect at dose” value in data set [8] is reported as 10% @ 10. Further, in [10], the “Nicotine-like discriminative stimulus effects” value is recorded as “nearly full nicotine-like discriminative stimulus effects”. The “Effect on blood pressure” value in data set [11] was “substantial increases in blood pressure”.
